According to patent publication US20110166121A1 (LG LIFE SCIENCES LTD., priority 2008, published 2011):
Structures can show the parent of a compound that is named as a salt.

What follows are compounds tested on Human platelet aggregation caused by ADP (assay: Inhibition of ADP-induced platelet aggregation (Mimic-human PRP)). Conditions: 20 μM ADP, human platelet concentrate diluted with PPP, absorption at 595 nm.
Format: cell-based
Method: Platelet Preparation for Aggregation Studies
Human platelet aggregation reaction test is a functional experiment method to verify whether a test compound is an agonist or an antagonist to ADP receptor. […] The platelet product isolated from whole blood was purchased from Chung-Nam blood center (Dae-joen, South Korea). The platelet was isolated from 400 mL of whole blood containing 56 mL of CPDA-1 anticoagulant. To isolate the platelet product, 400 mL of whole blood was centrifuged at 260×g for 5 minutes, and then obtained PRP (platelet rich plasma) was secondary centrifuged at 370×g for 6 minutes. Platelet pellet (10^9/mL) was suspended with 45 mL of plasma and then agitated over 1 hour at 22° C. blood reservoir to stabilize it. The stabilized platelet product was used in the experiment within 24 hours. PCs (Platelet Concentrates) were gently transferred to a new 50 ml-falcon tube. The number of platelet was counted by using animal blood counter (ABC Vet, ABX diagnostics, France). The volume of 30 mL of PCs collected from same donor was centrifuged at 1500 g for 10 min at room temperature to prepare platelet-poor plasma (PPP). The platelet count was adjusted to platelet number of 3˜4×10^8/mL by diluting with PPP.
Evaluation on Inhibitory Effect of ADP-Induced Aggregation
Inhibition of ADP-induced aggregation was determined in 96-well flat-bottom plates (Costar, USA) at room temperature. The diluted platelet was aliquoted into each well of 96 well plate in the volume of 188 μl. […] The platelet including test compounds was immediately mixed on a shaker at 1050 rpm for 1 min and incubated at room temperature for 20 min. Then, 10 μL volume of 400 μM ADP was added: the final concentration of 20 μM ADP in the total reaction volume of 0.2 mL/well. After shaking of the plate at room temperature for 3 min, the absorption of the samples was determined at 595 nm using a microtiter plate reader (Softmax, Molecular Devices).
A dose-dependent curve on serial dilutions of ADP was accomplished by adding vehicle (DMSO) instead of antagonists in order to calculate EC50 of ADP. Inhibition of aggregation was calculated from the increase of absorption at 595 nm at 3 min of the reaction incubation, compared to results of absorption between the 0 and 20 μM ADP control without antagonists. Sigmoidal dose-response curves and Ki were derived by non-linear regression analysis using the Prism software (GraphPad, San Diego Calif.).

Point of comparison: CCCC(=O)N[C@H]1CCCN(c2nc(N3CCn4c(nnc4C(F)(F)F)C3)c3cc(CCC)sc3n2)C1 [Example 7-10, Hydrochloric acid salt of N-{(S)-1-[6-Propyl-4-(3-trifluoromethyl-5,6-dihydro-8H-[1,2,4]triazolo[4,3-a]pyrazin-7-yl)-thieno[2,3-d]pyrimidin-2-yl]-piperidin-3-yl}-butyramide], Ki 0.98 µM. Against it:
- CCCc1cc2c(N3CCn4c(nnc4C(F)(F)F)C3)nc(OCCN(CC(=O)OCC)C(=O)C3CC3)nc2s1 [Example 3-56, (Cyclopropanecarbonyl-{2-[6-propyl-4-(3-trifluoromethyl-5,6-dihydro-8H-[1,2,4]triazolo[4,3-a]pyrazin-7-yl)-thieno[2,3-c]pyrimidin-2-yloxy]-ethyl}-amino)-acetic acid ethyl ester] — 13-fold lower, 0.075 µM
- CCCc1cc2c(N3CCn4c(nnc4C(F)(F)F)C3)nc(OCCN(CC(=O)O)C(=O)C3CC3)nc2s1 [Example 3-57, (Cyclopropanecarbonyl-{2-[6-propyl-4-(3-trifluoromethyl-5,6-dihydro-8H-[1,2,4]triazolo[4,3-a]pyrazin-7-yl)-thieno[2,3-d]pyrimidin-2-yloxy]-ethyl}-amino)-acetic acid] — 43-fold lower, 0.023 µM
- CCCc1cc2c(N3CCn4c(nnc4C(F)(F)F)C3)nc(OCCNC(=O)C3CC3)nc2s1 [Example 3-59, Cyclopropanecarboxylic Acid {2-[6-propyl-4-(3-trifluoromethyl-5,6-dihydro-8H-[1,2,4]triazolo[4,3-a]pyrazin-7-yl)-thieno[2,3-d]pyrimidin-2-yloxy]-ethyl}-amide] — 650-fold lower, 0.0015 µM
- CCCc1cc2c(N3CCn4c(nnc4C(F)(F)F)C3)nc(OCCNC(=O)CO)nc2s1 [Example 3-60, 2-Hydroxy-N-{2-[6-propyl-4-(3-trifluoromethyl-5,6-dihydro-8H-[1,2,4]triazolo[4,3-a]pyrazin-7-yl)-thieno[2,3-d]pyrimidin-2-yloxy]-ethyl}-acetamide] — 1400-fold lower, 0.0007 µM
- CCCc1cc2c(N3CCn4c(nnc4C(F)(F)F)C3)nc(OCCNC(=O)C(F)(F)F)nc2s1 [Example 3-61, 2,2,2-Trifluoro-N-{2-[6-propyl-4-(3-trifluoromethyl-5,6-dihydro-8H-[1,2,4]triazolo[4,3-a]pyrazin-7-yl)-thieno[2,3-d]pyrimidin-2-yloxy]-ethyl}-acetamide] — 180-fold lower, 0.0054 µM
- CCCc1cc2c(N3CCn4c(nnc4C(F)(F)F)C3)nc(OCCN3CCCC3=O)nc2s1 [Example 3-62, 1-{2-[6-Propyl-4-(3-trifluoromethyl-5,6-dihydro-8H-[1,2,4]triazolo[4,3-a]pyrazin-7-yl)-thieno[2,3-d]pyrimidin-2-yloxy]-ethyl}-pyrrolidin-2-one] — 520-fold lower, 0.0019 µM
- CCCc1cc2c(N3CCn4c(nnc4C(F)(F)F)C3)nc(-c3nc(C(=O)O)cs3)nc2s1 [Example 4-46, 2-[6-Propyl-4-(3-trifluoromethyl-5,6-dihydro-8H-[1,2,4]triazolo[4,3-a]pyrazin-7-yl)thieno[2,3-d]pyrimidin-2-yl]thiazole-4-carboxylic acid] — 39-fold lower, 0.025 µM
- CCCC(=O)N[C@H]1CCN(c2nc(N3CCn4c(nnc4C(F)(F)F)C3)c3cc(CCC)sc3n2)C1 [Example 7-1, Hydrochloric acid salt of N-{(S)-1-[6-Propyl-4-(3-trifluoromethyl-5,6-dihydro-8H-[1,2,4]triazolo[4,3-a]pyrazin-7-yl)-thieno[2,3-d]pyrimidin-2-yl]-pyrrolidin-3-yl}-butyramide] — 89-fold lower, 0.011 µM
- CCCc1cc2c(N3CCn4c(nnc4C(F)(F)F)C3)nc(N3CC[C@H](NC(=O)C(C)C)C3)nc2s1 [Example 7-2, Hydrochloric acid salt of N-{(S)-1-[6-Propyl-4-(3-trifluoromethyl-5,6-dihydro-8H-[1,2,4]triazolo[4,3-a]pyrazin-7-yl)-thieno[2,3-d]pyrimidin-2-yl]-pyrrolidin-3-yl}-isobutyramide] — 12-fold lower, 0.079 µM
- CCCc1cc2c(N3CCn4c(nnc4C(F)(F)F)C3)nc(N3CC[C@@H](NC(C)=O)C3)nc2s1 [Example 7-3, Hydrochloric acid salt of N-{(R)-1-[6-Propyl-4-(3-trifluoromethyl-5,6-dihydro-8H-[1,2,4]triazolo[4,3-a]pyrazin-7-yl)-thieno[2,3-d]pyrimidin-2-yl]-pyrrolidin-3-yl}-acetamide] — 38-fold lower, 0.026 µM
- CCCC(=O)N[C@@H]1CCN(c2nc(N3CCn4c(nnc4C(F)(F)F)C3)c3cc(CCC)sc3n2)C1 [Example 7-4, Hydrochloric acid salt of N-{(R)-1-[6-Propyl-4-(3-trifluoromethyl-5,6-dihydro-8H-[1,2,4]triazolo[4,3-a]pyrazin-7-yl)-thieno[2,3-d]pyrimidin-2-yl]-pyrrolidin-3-yl}-butyramide] — 13-fold lower, 0.075 µM
- CCCc1cc2c(N3CCn4c(nnc4C(F)(F)F)C3)nc(N3CC[C@@H](NC(=O)C(C)C)C3)nc2s1 [Example 7-5, Hydrochloric acid salt of N-{(R)-1-[6-Propyl-4-(3-trifluoromethyl-5,6-dihydro-8H-[1,2,4]triazolo[4,3-a]pyrazin-7-yl)-thieno[2,3-d]pyrimidin-2-yl]-pyrrolidin-3-yl}-isobutyramide] — 31-fold lower, 0.032 µM
- CCCc1cc2c(N3CCn4c(nnc4C(F)(F)F)C3)nc(N3CCC[C@@H](NC(C)=O)C3)nc2s1 [Example 7-6, Hydrochloric acid salt of N-{(R)-1-[6-Propyl-4-(3-trifluoromethyl-5,6-dihydro-8H-[1,2,4]triazolo[4,3-a]pyrazin-7-yl)-thieno[2,3-d]pyrimidin-2-yl]-piperidin-3-yl}-acetamide] — 54-fold lower, 0.018 µM
- CCCC(=O)N[C@@H]1CCCN(c2nc(N3CCn4c(nnc4C(F)(F)F)C3)c3cc(CCC)sc3n2)C1 [Example 7-7, Hydrochloric acid salt of N-{(R)-1-[6-Propyl-4-(3-trifluoromethyl-5,6-dihydro-8H-[1,2,4]triazolo[4,3-a]pyrazin-7-yl)-thieno[2,3-d]pyrimidin-2-yl]-piperidin-3-yl}-butyramide] — 16-fold lower, 0.063 µM
- CCCc1cc2c(N3CCn4c(nnc4C(F)(F)F)C3)nc(N3CCC[C@@H](NC(=O)C(C)C)C3)nc2s1 [Example 7-8, Hydrochloric acid salt of N-{(R)-1-[6-Propyl-4-(3-trifluoromethyl-5,6-dihydro-8H-[1,2,4]triazolo[4,3-a]pyrazin-7-yl)-thieno[2,3-d]pyrimidin-2-yl]-piperidin-3-yl}-isobutyramide] — 6.5-fold lower, 0.15 µM
- CCCc1cc2c(N3CCn4c(nnc4C(F)(F)F)C3)nc(N3CCC[C@H](NC(C)=O)C3)nc2s1 [Example 7-9, Hydrochloric acid salt of N-{(S)-1-[6-Propyl-4-(3-trifluoromethyl-5,6-dihydro-8H-[1,2,4]triazolo[4,3-a]pyrazin-7-yl)-thieno[2,3-d]pyrimidin-2-yl]-piperidin-3-yl}-acetamide] — 1.7-fold lower, 0.59 µM
- CCCc1cc2c(N3CCn4c(nnc4C(F)(F)F)C3)nc(N3CCC[C@H](NC(=O)C(C)C)C3)nc2s1 [Example 7-11, Hydrochloric acid salt of N-{(S)-1-[6-Propyl-4-(3-trifluoromethyl-5,6-dihydro-8H-[1,2,4]triazolo[4,3-a]pyrazin-7-yl)-thieno[2,3-d]pyrimidin-2-yl]-piperidin-3-yl}-isobutyramide] — 3.5-fold lower, 0.28 µM
